Experimental data published in patent publication EP4603105A1, “PHARMACEUTICAL COMPOSITION CONTAINING CYCLIC COMPOUND HAVING SELECTIVE KRAS INHIBITORY EFFECT AGAINST HRAS AND NRAS” (CHUGAI SEIYAKU KABUSHIKI KAISHA, priority 2022, dated 2024).
Like-named read-outs stand apart in the source and are kept apart here.

Tests used:
[1] = target: GDP-bound KRAS wild-type protein (Homo sapiens, UniProt P01116); experiment: Binding to KRAS by surface plasmon resonance (SPR), dissociation constant KD
Summary of the method: (§1)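 Each cycle, GDP-bound biotin-Avi RAS was captured (~100–300 RU), compound concentrations were injected low to high for 75 s each at 100 µL/min, then the chip was regenerated. Buffer: HBS pH 7.4, 10 mM MgCl2, 10 µM GDP, 1 mM DTT, 4% DMSO; 30°C. KD from a 1:1 binding model.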

[2] = target: GDP-bound NRAS wild-type protein (Homo sapiens, UniProt P01111); experiment: Binding to NRAS by surface plasmon resonance (SPR), KD and KD ratio to KRAS
Summary of the method: as §1

[3] = target: HRAS wild-type protein (Homo sapiens, UniProt P01112); experiment: Binding to HRAS by surface plasmon resonance (SPR), KD and KD ratio to KRAS
Summary of the method: as §1

[4] = test system: human lung cancer strain NCI-H441; experiment: NCI-H441 cell proliferation inhibitory activity (CellTiter-Glo, 4 days); assay type: cell-based; details: read-out: NCl-H441 IC50
Summary of the method: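 Signal came from […] measured per well once the reagent was added. Beforehand, cells were cultured at 37°C and 5% carbon dioxide on a compound series serially diluted in dimethyl sulfoxide.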

[5] = Single Cycle Kinetics, 1:1 binding model
[6] = ratio of KD with respect to GDP-bound NRAS wild-type protein to KD with respect to KRAS
[7] = ratio of KD with respect to HRAS wild-type protein to KD with respect to KRAS
[8] = 50% proliferation inhibitory concentration, four days
[9] = ratio of KD for GDP-bound NRAS wild-type protein to KD for KRAS
[10] = ratio of KD for HRAS wild-type protein to KD for KRAS

Sequence of HRAS wild-type protein (P01112 whole entry): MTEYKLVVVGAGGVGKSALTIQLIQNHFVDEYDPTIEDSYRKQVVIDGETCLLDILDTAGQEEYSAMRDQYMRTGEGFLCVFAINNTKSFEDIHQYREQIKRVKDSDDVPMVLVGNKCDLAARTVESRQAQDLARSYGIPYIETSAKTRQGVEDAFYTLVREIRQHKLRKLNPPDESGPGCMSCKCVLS
Sequence of GDP-bound KRAS wild-type protein (P01116 1-188 isoform P01116-2): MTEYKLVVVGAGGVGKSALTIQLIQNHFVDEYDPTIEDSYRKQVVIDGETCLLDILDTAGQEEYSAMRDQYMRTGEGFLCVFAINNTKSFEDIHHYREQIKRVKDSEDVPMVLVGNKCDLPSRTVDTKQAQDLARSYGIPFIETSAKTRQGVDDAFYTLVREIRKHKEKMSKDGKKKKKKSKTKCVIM
Sequence of GDP-bound NRAS wild-type protein (P01111 whole entry): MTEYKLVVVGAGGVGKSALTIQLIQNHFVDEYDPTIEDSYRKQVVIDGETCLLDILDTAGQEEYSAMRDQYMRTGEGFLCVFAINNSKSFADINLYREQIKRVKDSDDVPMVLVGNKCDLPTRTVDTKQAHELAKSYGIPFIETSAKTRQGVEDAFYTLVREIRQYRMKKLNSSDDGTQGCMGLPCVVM

SMILES | Kd [1, 5] | NRAS /KRAS [2, 6] | HRAS /KRAS [3, 7] | IC50 [4, 8] | Kd ([1]; 1:1 binding model) | NRAS /KRAS [2, 9] | HRAS /KRAS [3, 10] | IC50 ([4]; NCI-H441 cells, 4 days) | Kd ([1]; Single Cycle Kinetics)
CCO[C@@H]1C[C@H]2C(=O)NC3(CCC3)C(=O)N(C)[C@@H](C3CCCC3)C(=O)N(C)[C@H](C(=O)N(C)C)CC(=O)N(C)[C@@H](Cc3cccnc3)C(=O)N[C@@H]([C@@H](C)CC)C(=O)N(C)CC(=O)N(C)[C@H]3CCCCCN(C3=O)[C@@H](Cc3ccc(F)cc3)C(=O)N(C)CC(=O)N[C@@H](CCc3cc(F)c(C(F)(F)F)c(F)c3)C(=O)N2C1 [PP1196] | 0.04 nM | B (a compound having 3 or more and less than 10 is denoted as B) | B (a compound having 3 or more and less than 10 is denoted as B) | 50.8 nM |  |  |  |  | 
CCO[C@@H]1C[C@H]2C(=O)NC3(CCC3)C(=O)N(C)[C@@H](C(CC)CC)C(=O)N(C)[C@H](C(=O)N(C)C)CC(=O)N(C)[C@@H](CC3CCCC3)C(=O)N[C@@H]([C@@H](C)CC)C(=O)N(C)CC(=O)N(C)[C@H]3C/C=C\CCN(C3=O)[C@@H](Cc3ccc(C(F)(F)F)cc3)C(=O)N(C)CC(=O)N[C@@H](CCc3ccc(C(F)(F)F)c(OC)c3)C(=O)N2C1 [PP1212] | 0.28 nM | AA (a compound having 20 or more is denoted as AA) | A (a compound having 10 or more and less than 20 is denoted as A) | 35.6 nM |  |  |  |  | 
CCOC[C@H]1C(=O)N[C@@H]([C@@H](C)CC)C(=O)N(C)CC(=O)N(C)[C@H]2C/C=C\CCN(C2=O)[C@@H](CC2CCC(F)(F)CC2)C(=O)N(C)CC(=O)N[C@@H](CCc2cc(F)c(C(F)(F)F)c(F)c2)C(=O)N2C[C@@H](C)C[C@H]2C(=O)NC2(CC(C)(C)C2)C(=O)N(C)[C@@H](C(CC)CC)C(=O)N(C)[C@H](C(=O)N(C)C)CC(=O)N1C [PP2462] |  |  |  |  | 1.6 nM | A (a compound having 10 or more and less than 20 is denoted as A) | A (a compound having 10 or more and less than 20 is denoted as A) | 87.2 nM | 
CCO[C@@H]1C[C@H]2C(=O)NC3(CC(C)(C)C3)C(=O)N(C)[C@@H](C(CC)CC)C(=O)N(C)[C@H](C(=O)N(C)C)CC(=O)N(C)[C@@H](COC)C(=O)N[C@@H]([C@@H](C)CC)C(=O)N(C3CC3)CC(=O)N(C)[C@H]3C/C=C\CCN(C3=O)[C@@H](CC3CCC(F)(F)CC3)C(=O)N(C)CC(=O)N[C@@H](CCc3ccc(Cl)c(Cl)c3)C(=O)N2C1 [PP2569] |  |  |  |  | 2.8 nM | AA (a compound having 20 or more is denoted as AA) | A (a compound having 10 or more and less than 20 is denoted as A) | 185 nM | 
CCCO[C@@H]1C[C@H]2C(=O)NC3(CC(C)(C)C3)C(=O)N(C)[C@@H](C3CCCC3)C(=O)N(C)[C@H](C(=O)N(C)CC)CC(=O)N(C)[C@@H](COCC)C(=O)N[C@@H]([C@@H](C)CC)C(=O)N3C[C@@H](F)C[C@H]3C(=O)N(C)[C@H]3C/C=C\CCN(C3=O)[C@@H](Cc3ccc(C)cc3)C(=O)N(C)CC(=O)N[C@@H](CCc3ccc(C(F)(F)F)c(OC)c3)C(=O)N2C1 [PP3469] |  |  |  |  |  | A (a compound having 10 or more and less than 20 is denoted as A) | A (a compound having 10 or more and less than 20 is denoted as A) | 24.2 nM | 0.56 nM
CCO[C@@H]1C[C@H]2C(=O)NC3(CCC3)C(=O)N(C)[C@@H](C3CCCC3)C(=O)N(C)[C@H](C(=O)N3CCOCC3)CC(=O)N(C)[C@@H](Cc3cccs3)C(=O)N[C@@H]([C@@H](C)CC)C(=O)N(C)CC(=O)N(C)[C@H]3CCCCCN(C3=O)[C@@H](Cc3ccc(F)cc3)C(=O)N(C)CC(=O)N[C@@H](CCc3cc(F)c(C(F)(F)F)c(F)c3)C(=O)N2C1 [PP1183] | 0.26 nM | B (a compound having 3 or more and less than 10 is denoted as B) | B (a compound having 3 or more and less than 10 is denoted as B) | 27.8 nM |  |  |  |  | 
CCO[C@@H]1C[C@H]2C(=O)NC3(CC(C)(C)C3)C(=O)N(C)[C@@H](C3CCCC3)C(=O)N(C)[C@H](C(=O)N(C)C)CC(=O)N(C)[C@@H]([C@H](C)OC)C(=O)N[C@@H]([C@@H](C)CC)C(=O)N(C)CC(=O)N(C)[C@H]3C/C=C\CCN(C3=O)[C@@H](Cc3ccc(C(F)(F)F)cc3)C(=O)N(C)CC(=O)N[C@@H](CCc3cc(F)c(C(F)(F)F)c(F)c3)C(=O)N2C1 [PP3169] |  |  |  |  |  | A (a compound having 10 or more and less than 20 is denoted as A) | A (a compound having 10 or more and less than 20 is denoted as A) | 7.9 nM | 0.064 nM
